According to patent US5552389A, “Suppressory compositions against hepatic metastases of tumors” (Senju Pharmaceutical Co., Ltd., priority 1994, dated 1996):
Counter-ions that a name gives are not always drawn.

How the values were obtained:
[1] = Acute toxicity (LD50) in rats; conditions: rat, in vivo
AH60C cells = assay: Number of tumor nodules on the liver surface in the AH60C hepatic metastasis model in rats; type: in vivo, Male Donryu rats; AH60C cells derived from rat hepatoma; conditions: 5 mg/kg i.v. an hour before surgical invasion (laparothoractomy); 5×10^5 AH60C cells via portal vein; 3 weeks later; Group C (not treated) 27.2±30.0; p<0.01 (Mann-Whitney U)
Description: (§1) Using a model of hepatic metastasis of tumor, an experiment was conducted to determine a correlation of hepatic metastasis of tumor with a level of liver lipid peroxide (LPO). In addition, an experiment was effected on the Present Compound in terms of its suppressory effect of liver lipid peroxide (LPO) and suppressory effect on hepatic metastasis of tumor.
(§2) Male Donryu rats (ca. 10-weeks aged) were employed as an experimental animal, while AH60C cells (derived from rat hepatoma) were used as a tumor cell. The rats were divided into three groups, namely a laparothoractomy group (Group LT) undergoing intratracheal intubation, followed by thoraco-laparotomy for one hour, a laparotomy group (Group L) undergoing only laparotomy for one hour and a control group (Group C) undergoing laparotomy, followed by immediate closure of the abdomen. The rats were subjected to laparotomy under anesthesia with ether and Ketalar and given 5×10^5 of AH60C cells through the portal vein to inflict surgical invasion, followed by laparotomy three weeks later to determine the number of tumor nodules on the liver surface. In addition to this, the serum samples were drawn, while the liver and lung tissues were isolated, on Disease Days 1. 2 and 3 to determine their respective levels of lipid peroxide by the TBA method. […]

[2] = system: liver lipid peroxide (LPO); assay: Level of liver lipid peroxide (LPO, TBA method) after surgical invasion (laparothoractomy) in rats; type: in vivo, Male Donryu rats; conditions: 5 mg/kg i.v. an hour before surgical invasion (laparothoractomy); 24 hours later; elevation significantly suppressed, p<0.05 (Mann-Whitney U)
Description: as §1, §2

Cc1c(C)c2c(c(C)c1OP(=O)(O)OC1=C(O)[C@@H]([C@@H](O)CO)OC1=O)CCC(C)(CCCC(C)CCCC(C)CCCC(C)C)O2 (mixture of isomers) [EPC-K, potassium salt of a phosphoric acid diester of L-ascorbic acid and DL-α-tocopherol]
LD50 ([1]; iv): ≥ 100 mg/kg | LD50 ([1]; po): 5000 mg/kg | number of tumor nodules on the liver surface (AH60C cells): 8.9±12.7 | level of liver lipid peroxide (LPO) [2]: 18.9 ± 17.9 nmol/g
